Reference: paper PMC4142139 (European Journal of Drug Metabolism and Pharmacokinetics, 2014)

T1: OATP1B1*5 (Homo sapiens, UniProt Q9Y6L6, V174A)
T1 sequence (Q9Y6L6 1-691 V174A): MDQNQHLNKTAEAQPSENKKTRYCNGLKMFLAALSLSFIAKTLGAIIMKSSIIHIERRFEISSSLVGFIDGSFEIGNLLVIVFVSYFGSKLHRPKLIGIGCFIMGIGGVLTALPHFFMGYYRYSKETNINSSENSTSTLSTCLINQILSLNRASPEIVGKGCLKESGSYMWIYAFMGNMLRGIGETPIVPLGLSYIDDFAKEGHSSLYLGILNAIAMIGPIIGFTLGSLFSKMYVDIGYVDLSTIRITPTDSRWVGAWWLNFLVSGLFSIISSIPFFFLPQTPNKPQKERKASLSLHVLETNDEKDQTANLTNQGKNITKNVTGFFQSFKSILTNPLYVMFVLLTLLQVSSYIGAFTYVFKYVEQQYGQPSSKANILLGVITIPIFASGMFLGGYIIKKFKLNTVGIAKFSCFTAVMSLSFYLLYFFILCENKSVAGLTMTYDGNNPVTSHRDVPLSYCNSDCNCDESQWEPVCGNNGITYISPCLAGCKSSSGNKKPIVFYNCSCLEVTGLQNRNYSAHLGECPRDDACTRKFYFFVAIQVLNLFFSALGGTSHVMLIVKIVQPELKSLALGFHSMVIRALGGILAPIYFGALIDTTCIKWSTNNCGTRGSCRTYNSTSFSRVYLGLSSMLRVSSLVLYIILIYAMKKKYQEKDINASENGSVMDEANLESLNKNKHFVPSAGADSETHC

T2: OATP1B1*1a (Homo sapiens, UniProt Q9Y6L6)
T2 sequence (Q9Y6L6 1-691): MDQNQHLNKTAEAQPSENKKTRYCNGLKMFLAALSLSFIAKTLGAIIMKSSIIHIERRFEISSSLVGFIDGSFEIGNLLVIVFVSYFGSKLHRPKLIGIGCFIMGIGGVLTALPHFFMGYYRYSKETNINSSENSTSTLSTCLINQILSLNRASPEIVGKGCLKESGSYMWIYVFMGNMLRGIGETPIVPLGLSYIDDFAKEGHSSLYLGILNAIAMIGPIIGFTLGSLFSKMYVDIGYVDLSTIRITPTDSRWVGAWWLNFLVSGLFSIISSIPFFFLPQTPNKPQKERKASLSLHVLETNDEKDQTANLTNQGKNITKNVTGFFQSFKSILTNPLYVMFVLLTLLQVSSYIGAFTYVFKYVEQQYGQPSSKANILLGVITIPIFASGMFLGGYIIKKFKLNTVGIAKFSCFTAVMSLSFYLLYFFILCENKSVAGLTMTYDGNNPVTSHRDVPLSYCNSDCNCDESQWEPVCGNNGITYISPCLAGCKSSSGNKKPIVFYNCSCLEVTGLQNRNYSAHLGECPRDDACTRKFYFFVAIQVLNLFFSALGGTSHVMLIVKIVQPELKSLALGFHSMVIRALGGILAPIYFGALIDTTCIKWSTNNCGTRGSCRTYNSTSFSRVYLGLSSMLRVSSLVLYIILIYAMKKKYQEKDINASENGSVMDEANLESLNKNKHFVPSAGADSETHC


Assays:
OATP1B1*5 = target: T1, OATP1B1*5; assay: inhibition of rosuvastatin uptake in OATP1B1*5-HEK293T cells, LC/MS; format: cell-based
OATP1B1*1a = target: T2, OATP1B1*1a; assay: inhibition of rosuvastatin uptake in OATP1B1*1a-HEK293T cells, LC/MS; format: cell-based
[1] = substrate: CC(C)c1nc(N(C)S(C)(=O)=O)nc(-c2ccc(F)cc2)c1/C=C/[C@@H](O)C[C@@H](O)CC(=O)O; assay: concentration-dependent uptake kinetics; format: cell-based, Homo sapiens

| Molecule | IC50 (OATP1B1*5) [µM] | IC50 (OATP1B1*1a) [µM] | Km [1] [µM] |
| --- | --- | --- | --- |
| C[C@H]1[C@H](C)CC[C@]2(C(=O)O)CC[C@]3(C)C(=CC[C@@H]4[C@@]5(C)CC[C@H](O)C(C)(C)[C@@H]5CC[C@]43C)[C@H]12 [UA, 3b-hydroxy-urs-12-en-28-oic-acid] | 6.07 ± 0.57 | 6.25 ± 0.42 | – |
| OATP1B1*1a (Homo sapiens) (protein) MDQNQHLNKTAEAQPSENKKTRYCNGLKMFLAALSLSFIAKTLGAIIMKSSIIHIERRFEISSSLVGFIDGSFEIGNLLVIVFVSYFGSKLHRPKLIGIGCFIMGIGGVLTALPHFFMGYYRYSKETNINSSENSTSTLSTCLINQILSLNRASPEIVGKGCLKESGSYMWIYVFMGNMLRGIGETPIVPLGLSYIDDFAKEGHSSLYLGILNAIAMIGPIIGFTLGSLFSKMYVDIGYVDLSTIRITPTDSRWVGAWWLNFLVSGLFSIISSIPFFFLPQTPNKPQKERKASLSLHVLETNDEKDQTANLTNQGKNITKNVTGFFQSFKSILTNPLYVMFVLLTLLQVSSYIGAFTYVFKYVEQQYGQPSSKANILLGVITIPIFASGMFLGGYIIKKFKLNTVGIAKFSCFTAVMSLSFYLLYFFILCENKSVAGLTMTYDGNNPVTSHRDVPLSYCNSDCNCDESQWEPVCGNNGITYISPCLAGCKSSSGNKKPIVFYNCSCLEVTGLQNRNYSAHLGECPRDDACTRKFYFFVAIQVLNLFFSALGGTSHVMLIVKIVQPELKSLALGFHSMVIRALGGILAPIYFGALIDTTCIKWSTNNCGTRGSCRTYNSTSFSRVYLGLSSMLRVSSLVLYIILIYAMKKKYQEKDINASENGSVMDEANLESLNKNKHFVPSAGADSETHC | – | – | 19.87 ± 5.96 |
| OATP1B1*5 (Homo sapiens; V174A) (protein) MDQNQHLNKTAEAQPSENKKTRYCNGLKMFLAALSLSFIAKTLGAIIMKSSIIHIERRFEISSSLVGFIDGSFEIGNLLVIVFVSYFGSKLHRPKLIGIGCFIMGIGGVLTALPHFFMGYYRYSKETNINSSENSTSTLSTCLINQILSLNRASPEIVGKGCLKESGSYMWIYAFMGNMLRGIGETPIVPLGLSYIDDFAKEGHSSLYLGILNAIAMIGPIIGFTLGSLFSKMYVDIGYVDLSTIRITPTDSRWVGAWWLNFLVSGLFSIISSIPFFFLPQTPNKPQKERKASLSLHVLETNDEKDQTANLTNQGKNITKNVTGFFQSFKSILTNPLYVMFVLLTLLQVSSYIGAFTYVFKYVEQQYGQPSSKANILLGVITIPIFASGMFLGGYIIKKFKLNTVGIAKFSCFTAVMSLSFYLLYFFILCENKSVAGLTMTYDGNNPVTSHRDVPLSYCNSDCNCDESQWEPVCGNNGITYISPCLAGCKSSSGNKKPIVFYNCSCLEVTGLQNRNYSAHLGECPRDDACTRKFYFFVAIQVLNLFFSALGGTSHVMLIVKIVQPELKSLALGFHSMVIRALGGILAPIYFGALIDTTCIKWSTNNCGTRGSCRTYNSTSFSRVYLGLSSMLRVSSLVLYIILIYAMKKKYQEKDINASENGSVMDEANLESLNKNKHFVPSAGADSETHC | – | – | 10.05 ± 4.02 |
